Laboratory results from US20260183302A1, “PDK1 REGULATORY COMPOUND AND COMPOSITION CONTAINING THE SAME” (PROVIBIO CO., LTD., priority 2024, published 2026).

Assays:
[1] = system: T cells isolated from mouse spleens; assay: T cell proliferation inhibition (CFSE flow cytometry, anti-CD3/anti-CD28 stimulation); type: cell-based, C57BL/6 mice; details: three days
Summary of the method: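 Splenic T cells from 7-week-old C57BL/6 mice, CFSE-labelled, 2× 10^5 cells/well, stimulated with anti-CD3 and anti-CD28 (0.5 μg/mL each). Compound at 10 nM-50 μM in triplicate for three days at 37 °C, 5% CO2; proliferation inhibition (%) derived by flow cytometry.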

[2] = system: Human B Lymphocyte cell line, SU-DHL-8; assay: Relative cell viability, SU-DHL-8 (CCK-8); type: cell-based; details: 48 hours, untreated (DMSO) = 100%
Summary of the method: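 Cells grown in RPMI-1640 with 10% FBS, treated with compound at several concentrations, then given CCK-8 for 4 h at 37° C. Viability expressed as percent of DMSO-treated cells.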

[3] = system: Human multiple myeloma, KMS34; assay: Relative cell viability, KMS34 (CCK-8); type: cell-based; details: concentration 1 μM, relative to untreated cells
Procedure: After that, 10 μL of CCK-8 was added to each well, and the plate was incubated again at 37° C. in a 5% CO2 incubator for 2 hours.
In other words, when the survival rate of untreated cells (DMSO) is set at 100%, the relative cell survival rate in each group treated with the drug at different concentrations is indicated.

[4] = system: human lung fibroblasts MRC-5; assay: TGF-β induced Collagen I expression in MRC-5 cells (Western blot); type: cell-based; details: MRC-5, TGF-β (5 ng/ml), 0.5 μM and 1 μM, 24 hours
Procedure: To confirm that the compound of the present invention directly acts on fibrosis-related mechanisms, in vitro experiments were performed using human lung fibroblasts MRC-5 cell lines (Korea Cell Bank).
First, MRC-5 cells were seeded at 5×10^3 cells per well in a 6-well plate and stabilized for 24 hours.
Subsequently, experimental groups were established, including a control group, a group treated with TGF-β (5 ng/ml) alone, and groups treated with TGF-β and the compound GO88 from the present invention at concentrations of 0.5 μM and 1 μM, respectively.
After treating each group with the drugs for 24 hours, the cell medium was removed, and the cells were washed twice with cold PBS. Then, RIPA lysis buffer containing phosphatase inhibitor and protease inhibitor was added to each group to extract proteins.
The extracted proteins were incubated at 4° C. for 30 minutes, then centrifuged at 13,000 rpm for 15 minutes, and the supernatant was collected. The total protein concentration was measured using the BCA protein quantification method.
Subsequently, the proteins were separated by SDS-PAGE, transferred to a PVDF membrane, and Western blot analysis was performed.
The expression levels of Collagen I, a marker related to pulmonary fibrosis, were confirmed, with GAPDH used as an internal control.

[5] = system: skin graft (BALB/c donor to C57BL/6 recipient); assay: In vivo skin graft immune suppression model; set-up: species or system C57BL/6 mice; details: 0.15 mg/kg twice daily
Procedure: To evaluate the immune-suppressive effects of the compounds according to the present invention, a skin graft animal model was established, and the efficacy of the compounds was analyzed in the model.
First, female BALB/c mice aged 7 weeks and weighing approximately 20 g were used as donor animals, and female C57BL/6 mice of the same age and weight were used as recipient animals. All experimental animals were supplied by HanabioTech Co., Ltd.
Prior to the experiment, the animals were acclimatized in SPF-certified facilities for one week and then used in the experiment. The housing conditions were maintained at a temperature of 22±2° C., relative humidity of 55+10%, and a 12-hour light-dark cycle.
To establish the skin graft model, a anesthetic solution consisting of ketamine, […], and PBS in a volume ratio of 1:1:3 was administered intraperitoneally to C57BL/6 mice to induce anesthesia.
The hair on the dorsal side of the anesthetized mice was removed and disinfected, followed by excision of the full-thickness skin using an 8 mm punch. Subsequently, skin of the same size was harvested from donor mice (BALB/c) and transplanted. […]
Subsequently, the proportions of CD3- and B220-positive cells were analyzed using a flow cytometer.

**Q.** “12-[4-(2,2-dimethylmorpholin-4-yl)]dodecyl-N-(6-aminopurine-2-yl) carboxamide [Compound 11]” was tested. Which “Proliferation inhibition rate (%)” value ([1]; concentration 10 nM) did it give?
**A.** The value was −25.47%.

**Q.** What about the “Proliferation inhibition rate (%)” value ([1]; concentration 100 nM) of the same molecule?
**A.** Its value is 100.00%.

**Q.** And the “Proliferation inhibition rate (%)” value ([1]; concentration 1 μM)?
**A.** The value was 100.00%.

**Q.** And the “Proliferation inhibition rate (%)” value ([1]; concentration 10 μM)?
**A.** The value was 100.00%.

**Q.** What about the “Proliferation inhibition rate (%)” value ([1]; concentration 30 μM) of the same molecule?
**A.** The value was 100.00%.

**Q.** And the “Proliferation inhibition rate (%)” value ([1]; concentration 50 μM)?
**A.** Its value is 100.00%.

**Q.** What about the “Relative cell viability (%)” value ([2]; SU-DHL-8, 1 μM) of the same molecule?
**A.** The value was 7.63%.

**Q.** What about the “Relative cell viability (%)” value ([2]; SU-DHL-8, 10 μM) of the same molecule?
**A.** The value was 6.09%.

**Q.** What about the “Relative cell viability (%)” value ([2]; SU-DHL-8, 30 μM) of the same molecule?
**A.** Its value is 4.82%.

**Q.** And the “Relative cell viability (%)” value ([2]; SU-DHL-8, 50 μM)?
**A.** The value was 3.29%.

**Q.** What about the “Relative cell viability (%)” value [3] of the same molecule?
**A.** Its value is 26.19%.

**Q.** What does the source list for `Nc1ncccc1C(=O)NCCCCCCCCCCCCN1CCNCC1` [Compound 14, 2-Amino-N-(12-(piperazin-1-yl)dodecyl)nicotinamide]?
**A.** protein expression of Collagen I [4]: inhibited in a concentration-dependent manner; animals with graft pinkening and good blood flow ([5]; day 10 post-transplantation): three out of five; animals with graft pinkening and good blood flow ([5]; day 15 post-transplantation): one out of five
